Strand notation (5' to 3'): a small letter for the sugar, then the base; units joined by * are phosphorothioate-linked, units joined directly phosphodiester-linked; [ ] holds rarer units or linkages, { } end groups; capitals alone tell only the bases. d = 2'-deoxy (DNA); m = 2'-O-methyl; f = 2'-fluoro
System: human EPAS1 (Hif2α) cDNA in psiCHECK2 (Renilla luciferase/EPAS1 fusion mRNA) in Hep3B cells
Assay: Efficacy screen of Hif2α RNAi triggers in vitro, dual-luciferase reporter assay (1 nM and 0.1 nM)
Type: cell-based
Conditions: Hep3B cells co-transfected with EPAS1-psiCHECK2, Renilla luciferase normalized to firefly luciferase
Summary of the method: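 Knockdown read by dual-luciferase assay: Renilla signal from the Renilla/EPAS1 fusion transcript divided by firefly luciferase expressed from the same plasmid. Triggers (modified canonical siRNAs, 1 nM or 0.1 nM) were co-transfected with 25 ng reporter plasmid per well into human hepatocellular carcinoma Hep3B cells.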

| Substance | Relative Rluc-Hif2α (0.1 nM RNAi trigger) | Relative Rluc-Hif2α (1 nM RNAi trigger) |
| --- | --- | --- |
| 2395 (sense fUmAfUmUfAmAfCmCfCmUfAmCfCmUfGmUfCmAfAdT; antisense dTfUmGfAmCfAmGfGmUfAmGfGmGfUmUfAmAfUmAdT*dT; siRNA) [compound 2395] | 0.494 ± 0.104 | 0.218 ± 0.029 |
| 2396 (sense fUmUfAmAfCmCfCmUfAmCfCmUfGmUfCmAfAmCfAdT; antisense dTfGmUfUmGfAmCfAmGfGmUfAmGfGmGfUmUfAmAdT*dT; siRNA) [compound 2396] | 1.321 ± 0.070 | 0.939 ± 0.299 |
| 2397 (sense fAmCfCmCfUmAfCmCfUmGfUmCfAmAfCmGfUmAfAdT; antisense dTfUmAfCmGfUmUfGmAfCmAfGmGfUmAfGmGfGmUdT*dT; siRNA) [compound 2397] | 0.254 ± 0.048 | 0.119 ± 0.024 |
| 2398 (sense fCmCfCmUfAmCfCmUfGmUfCmAfAmCfGmUfAmAfAdT; antisense dTfUmUfAmCfGmUfUmGfAmCfAmGfGmUfAmGfGmGdT*dT; siRNA) [compound 2398] | 1.047 ± 0.047 | 0.534 ± 0.043 |
| 2399 (sense fCmCfUmAfCmCfUmGfUmCfAmAfCmGfUmAfAmCfAdT; antisense dTfGmUfUmAfCmGfUmUfGmAfCmAfGmGfUmAfGmGdT*dT; siRNA) [compound 2399] | 0.784 ± 0.071 | 0.418 ± 0.081 |
| 2400 (sense fCmUfAmCfCmUfGmUfCmAfAmCfGmUfAmAfCmGfAdT; antisense dTfCmGfUmUfAmCfGmUfUmGfAmCfAmGfGmUfAmGdT*dT; siRNA) [compound 2400] | 0.478 ± 0.028 | 0.165 ± 0.020 |
| 2401 (sense fUmAfCmCfUmGfUmCfAmAfCmGfUmAfAmCfGmAfAdT; antisense dTfUmCfGmUfUmAfCmGfUmUfGmAfCmAfGmGfUmAdT*dT; siRNA) [compound 2401] | 0.375 ± 0.062 | 0.174 ± 0.003 |
| 2402 (sense fAmCfCmUfGmUfCmAfAmCfGmUfAmAfCmGfAmUfAdT; antisense dTfAmUfCmGfUmUfAmCfGmUfUmGfAmCfAmGfGmUdT*dT; siRNA) [compound 2402] | 0.389 ± 0.060 | 0.128 ± 0.015 |
| 2403 (sense fCmCfUmGfUmCfAmAfCmGfUmAfAmCfGmAfUmUfAdT; antisense dTfAmAfUmCfGmUfUmAfCmGfUmUfGmAfCmAfGmGdT*dT; siRNA) [compound 2403] | 0.930 ± 0.132 | 0.568 ± 0.106 |
| 2404 (sense fCmUfGmUfCmAfAmCfGmUfAmAfCmGfAmUfUmUfAdT; antisense dTfAmAfAmUfCmGfUmUfAmCfGmUfUmGfAmCfAmGdT*dT; siRNA) [compound 2404] | 0.234 ± 0.045 | 0.104 ± 0.019 |
| 2405 (sense fUmGfUmCfAmAfCmGfUmAfAmCfGmAfUmUfUmCfAdT; antisense dTfGmAfAmAfUmCfGmUfUmAfCmGfUmUfGmAfCmAdT*dT; siRNA) [compound 2405] | 0.261 ± 0.044 | 0.138 ± 0.035 |
| 2406 (sense fUmCfAmAfCmGfUmAfAmCfGmAfUmUfUmCfAmUfAdT; antisense dTfAmUfGmAfAmAfUmCfGmUfUmAfCmGfUmUfGmAdT*dT; siRNA) [compound 2406] | 0.241 ± 0.022 | 0.168 ± 0.044 |
| 2407 (sense fAmCfGmUfAmAfCmGfAmUfUmUfCmAfUmGfAmAfAdT; antisense dTfUmUfCmAfUmGfAmAfAmUfCmGfUmUfAmCfGmUdT*dT; siRNA) [compound 2407] | 0.222 ± 0.027 | 0.124 ± 0.021 |
| 2408 (sense fUmAfUmUfAmUfAmUfUmGfUmCfGmAfAmUfUmCfAdT; antisense dTfGmAfAmUfUmCfGmAfCmAfAmUfAmUfAmAfUmAdT*dT; siRNA) [compound 2408] | 0.730 ± 0.045 | 0.282 ± 0.004 |
| 2409 (sense fUmUfAmUfAmUfUmGfUmCfGmAfAmUfUmCfCmUfAdT; antisense dTfAmGfGmAfAmUfUmCfGmAfCmAfAmUfAmUfAmAdT*dT; siRNA) [compound 2409] | 0.301 ± 0.085 | 0.104 ± 0.020 |
| 2410 (sense fUmAfUmUfGmUfCmGfAmAfUmUfCmCfUmAfCmUfAdT; antisense dTfAmGfUmAfGmGfAmAfUmUfCmGfAmCfAmAfUmAdT*dT; siRNA) [compound 2410] | 0.228 ± 0.033 | 0.154 ± 0.022 |
| 2411 (sense fGmAfAmUfUmCfCmUfAmCfUmGfAmCfAmAfCmAfAdT; antisense dTfUmGfUmUfGmUfCmAfGmUfAmGfGmAfAmUfUmCdT*dT; siRNA) [compound 2411] | 0.796 ± 0.110 | 0.410 ± 0.083 |
| 2412 (sense fUmCfCmUfAmCfUmGfAmCfAmAfCmAfUmUfAmUfAdT; antisense dTfAmUfAmAfUmGfUmUfGmUfCmAfGmUfAmGfGmAdT*dT; siRNA) [compound 2412] | 0.515 ± 0.037 | 0.291 ± 0.014 |
| 2413 (sense fUmAfUmAfAmCfUmGfUmAfUmGfGmGfAmGfCmUfAdT; antisense dTfAmGfCmUfCmCfCmAfUmAfCmAfGmUfUmAfUmAdT*dT; siRNA) [compound 2413] | 0.675 ± 0.104 | 0.317 ± 0.055 |
| 2414 (sense fUmAfAmCfUmGfUmAfUmGfGmGfAmGfCmUfUmAfAdT; antisense dTfUmAfAmGfCmUfCmCfCmAfUmAfCmAfGmUfUmAdT*dT; siRNA) [compound 2414] | 0.422 ± 0.070 | 0.167 ± 0.038 |
| 2415 (sense fUmGfUmAfUmGfGmGfAmGfCmUfUmAfAmCfUmUfAdT; antisense dTfAmAfGmUfUmAfAmGfCmUfCmCfCmAfUmAfCmAdT*dT; siRNA) [compound 2415] | 0.180 ± 0.097 | 0.119 ± 0.015 |
| 2416 (sense fUmUfGmAfCmAfCmUfGmGfUmAfUmCfUmUfAmUfAdT; antisense dTfAmUfAmAfGmAfUmAfCmCfAmGfUmGfUmCfAmAdT*dT; siRNA) [compound 2416] | 0.247 ± 0.031 | 0.166 ± 0.031 |
| 2417 (sense fAmAfGmUfAmUfUmCfUmGfAmUfCmCfUmAfCmCfAdT; antisense dTfGmGfUmAfGmGfAmUfCmAfGmAfAmUfAmCfUmUdT*dT; siRNA) [compound 2417] | 0.295 ± 0.057 | 0.253 ± 0.037 |
